Assay results from ChEMBL document CHEMBL4316653, “Cytotoxic Components from Hypericum elodeoides Targeting RXRα and Inducing HeLa Cell Apoptosis through Caspase-8 Activation and PARP Cleavage” (J Nat Prod, 2019).
Each block holds one molecule with its values, some of them ahead of it. Calls of active or inactive are those of the source. The rule behind the calls is not given here.

Key:
[1] = target: T1, Retinoic acid receptor RXR-alpha (Homo sapiens) (UniProt P19793); assay: Transrepression of GAL4-fused RXRalpha LBD (unknown origin) expressed in 293T cells assessed as inhibition of 9-cis-RA-induced transcription at 50 uM measured after 12 hrs by dual-luciferase reporter gene assay; format: cell-based
T1 sequence (whole entry): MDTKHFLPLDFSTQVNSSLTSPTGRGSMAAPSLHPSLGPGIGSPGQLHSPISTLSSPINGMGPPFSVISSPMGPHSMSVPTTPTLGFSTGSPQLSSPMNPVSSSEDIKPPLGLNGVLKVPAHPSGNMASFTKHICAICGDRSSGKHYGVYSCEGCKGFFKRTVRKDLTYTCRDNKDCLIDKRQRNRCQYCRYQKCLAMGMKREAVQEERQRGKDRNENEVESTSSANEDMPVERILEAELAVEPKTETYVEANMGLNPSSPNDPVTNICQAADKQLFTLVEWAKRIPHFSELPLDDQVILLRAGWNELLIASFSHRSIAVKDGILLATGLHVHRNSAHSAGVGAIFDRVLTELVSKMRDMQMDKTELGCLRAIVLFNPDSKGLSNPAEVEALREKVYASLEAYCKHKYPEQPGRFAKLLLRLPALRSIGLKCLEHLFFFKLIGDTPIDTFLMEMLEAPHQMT

[2] = target: T1, Retinoic acid receptor RXR-alpha (Homo sapiens); assay: Transrepression of GAL4-fused RXRalpha LBD (unknown origin) expressed in 293T cells assessed as inhibition of 9-cis-RA-induced transcription measured after 12 hrs by dual-luciferase reporter gene assay; format: cell-based
HeLa [3] = assay: Cytotoxicity against human HeLa cells assessed as inhibition of cell proliferation at 50 uM measured after 48 hrs by MTT assay; format: functional
HepG2 [4] = assay: Cytotoxicity against human HepG2 cells assessed as reduction in cell viability at 50 uM measured after 48 hrs by MTT assay; format: functional, cell-based
MCF7 [5] = assay: Cytotoxicity against human MCF7 cells assessed as reduction in cell viability at 50 uM measured after 48 hrs by MTT assay; format: functional, cell-based
SMMC-7721 [6] = assay: Cytotoxicity against human SMMC7721 cells assessed as reduction in cell viability at 50 uM measured after 48 hrs by MTT assay; format: functional, cell-based
HeLa [7] = assay: Induction of apoptosis in human HeLa cells assessed as increase in cleaved PARP expression at 50 uM by Western blot analysis; format: functional, cell-based; details: TDE = time-dependent effect
HeLa [8] = assay: Induction of apoptosis in human HeLa cells assessed as increase in cleaved PARP expression after 24 hrs by Western blot analysis; format: functional, cell-based
HeLa [9] = assay: Induction of apoptosis in human HeLa cells assessed as increase in caspase-8 activity at 50 uM measured after 10 hrs by Caspase-Glo luminescence assay; format: functional, cell-based
HeLa [10] = assay: Induction of apoptosis in human HeLa cells assessed as increase in caspase-3 activity at 50 uM measured after 10 hrs by Caspase-Glo luminescence assay; format: functional, cell-based
[11] = target: T1, Retinoic acid receptor RXR-alpha (Homo sapiens); assay: (§1) Binding affinity to recombinant human RXRalpha LBD ([…] residues) expressed in Escherichia coli BL21 (DE3) by fluorescence quenching assay
[12] = target: T2, Retinoic acid receptor RXR-alpha (Homo sapiens, UniProt P19793); assay: as §1
T2 sequence (P19793 whole entry): T1 sequence (whole entry)

HeLa [13] = assay: Cytotoxicity against human HeLa cells assessed as cell viability at 50 uM measured after 48 hrs by MTT assay; format: functional; details: read-out: Activity
HepG2 [14] = assay: Cytotoxicity against human HepG2 cells assessed as cell viability at 50 uM measured after 48 hrs by MTT assay; format: functional; details: HepG2, 48 h, read-out: Activity
MCF7 [15] = assay: Cytotoxicity against human MCF7 cells assessed as cell viability at 50 uM measured after 48 hrs by MTT assay; format: functional; details: MCF7, 48 h, read-out: Activity
SMMC-7721 [16] = assay: Cytotoxicity against human SMMC7721 cells assessed as cell viability at 50 uM measured after 48 hrs by MTT assay; format: functional; details: SMMC-7721, 48 h, read-out: Activity
HeLa [17] = assay: Induction of apoptosis in human HeLa cells assessed as increase in cleaved PARP expression at 20 uM by Western blot analysis; format: functional, cell-based; details: TDE = time-dependent effect
HeLa [18] = assay: Induction of apoptosis in human HeLa cells assessed as increase in caspase-8 activity at 20 uM measured after 10 hrs by Caspase-Glo luminescence assay; format: functional, cell-based
HeLa [19] = assay: Induction of apoptosis in human HeLa cells assessed as increase in caspase-3 activity at 20 uM measured after 10 hrs by Caspase-Glo luminescence assay; format: functional, cell-based

inhibition [1]: Active
inhibition [2]: Dose-dependent effect
Activity [11]: Dose-dependent effect
Kd [12]: 68.3 µM
SMILES: CC[C@H](C)c1cc(=O)c2c(O)cc(O)cc2o1
inhibition at 50 µM (HeLa [3]): > 50%
Activity (HepG2 [4]): inactive
Activity (MCF7 [5]): inactive
Activity (SMMC-7721 [6]): inactive
Activity (HeLa [7]): Tde
Activity (HeLa [8]): Dose-dependent effect
Activity (HeLa [9]): Active
Activity (HeLa [10]): inactive

inhibition [1]: Active
SMILES: COc1cc([C@H]2OC(=O)[C@H]3[C@@H]2CO[C@@H]3c2ccc(O)c(OC)c2)ccc1O
viability at 50 µM (HeLa [13]): < 50%
viability at 50 µM (HepG2 [14]): < 50%
viability at 50 µM (MCF7 [15]): < 50%
viability at 50 µM (SMMC-7721 [16]): < 50%

inhibition [1]: Active
inhibition [2]: Dose-dependent effect
Activity [11]: Dose-dependent effect
Kd [12]: 14 µM
SMILES: CC(C)=CCOc1cc2c(=O)c3c(O)cc(O)cc3oc2cc1O
inhibition at 50 µM (HeLa [3]): > 50%
Activity (HepG2 [4]): inactive
Activity (MCF7 [5]): inactive
Activity (SMMC-7721 [6]): inactive
Activity (HeLa [17]): Tde
Activity (HeLa [8]): Dose-dependent effect
Activity (HeLa [18]): Active
Activity (HeLa [19]): inactive

inhibition [1]: Active
inhibition [2]: Dose-dependent effect
SMILES: COc1cc(-c2cc(=O)c3c(O)cc(O)cc3o2)ccc1O

SMILES: Cc1cc2c(cc1-c1cc(/C=C/C(=O)O)ccc1O)C(C)(C)CCC2(C)C
Activity [11]: Dose-dependent effect

SMILES: COc1ccc2c(=O)c3cccc(O)c3oc2c1
viability at 50 µM (HeLa [13]): < 50%
viability at 50 µM (HepG2 [14]): < 50%
viability at 50 µM (MCF7 [15]): < 50%
viability at 50 µM (SMMC-7721 [16]): < 50%

inhibition [1]: Active
SMILES: CC(C)c1cc(=O)c2c(O)cc(O)cc2o1
